In patent US12459952B2, “TREM2 modulators” (Muna Therapeutics ApS, priority 2024, dated 2025):

Molecular target: T1, Human TREM2 (Homo sapiens, UniProt Q9NZC2)
T1 construct: expressed in transfected cells
Experiment: Human TREM2 cellular phospho-Syk AlphaLISA assay in HEK293/DAP12+TREM2 stable cell line
Assay type: cell-based
Settings: HEK293/DAP12+TREM2 cells; for Emax: maximal response relative to the maximal response of the reference agonist, phospho-Syk AlphaLISA; for EC50: phospho-Syk (Tyr525/526) AlphaLISA signal, 30 min incubation
Excerpt: Human TREM2, in vitro Measurement of Triggering Receptor Expressed on Myeloid Cells 2 activity using cellular phosphorylation of Spleen Tyrosine Kinase (“Syk”) Assay
HEK-293 cells were co-transfected with separate plasmids encoding TREM2 and DAP12 to generate a stable cell line. After antibiotic selection, functional clone pool analysis and two successive limiting dilutions, the final clone “HEK293/DAP12+TREM2” underwent a qPCR analysis and a pharmacological validation.
TREM2 signaling through DAP12 was monitored in the HEK293/DAP12+TREM2 stable cell line by measuring the phosphorylation levels of the Syk kinase using the commercially available AlphaLISA SureFire Ultra p-SYK (Tyr525/526) Assay Kit (PerkinElmer #ALSU-PSYK), based on the Perkin Elmer AlphaScreen/AlphaLISA technology.
Compounds are transferred to the test plate and tested in full dose response, 8 concentrations in quadruplicate data points. Compound serial dilutions were performed at Cybi-Felix instrument in 100% DMSO and the dose response curves were assembled in automated fashion in 384MPT at Hamilton STARlet instrument. All the stock solutions were prepared at 20 mM in 100% DMSO. For compounds testing, the starting concentration was 100 μM, dilution steps 1:6. A different concentration's range was adapted for compound's activity based on the preliminary results. Finally, a 384MPT reformatted for all compounds at 8 concentrations, quadruplicates, was used as “mother to child” process with a CyBi@-Well dispenser in which 1 μL of each compound was moved into a destination plate pre-filled with […] of EMEM cell culture medium (BIOWHITTAKER_cat.BE12-125F), thus obtaining 3× concentrated compounds working solution. In columns 1-2 and 23-24 the control wells were added. In particular, dose response curves of a reference control agonist were included in column 1 and 24 as reference control agonist (Reference control agonists used include Human TREM2 polyclonal Antibody AF1828: R&D Systems; Human TREM2 monoclonal Antibody MAB1828: R&D Systems). The dose response curves were tested starting at 30 μM, dilution step 1:6. Both “source” compound plate and “destination” compound plate were barcoded and a relationship between the two plates was thus generated.
HEK293/DAP12+TREM2 cells were cultured in EMEM medium supplemented with IX Penicillin/Streptomycin (BIOWHITTAKER_cat.DE17-602E), ULTRAGLUTAMINE I 200 mM, 10% Fetal Bovine Serum plus antibiotics referred to as “HEK293 Culture Medium”. The day before the experiment, cells were detached by gentle wash with DPBS, followed by 5 min incubation at 37° C. with Trypsin solution. Cells were then diluted in HEK293 Culture Medium without antibiotics, counted and seeded into 384-well poly-D-Lysine coated microplates black/clear bottom (GREINER 781946) at a density of 10,000 cells/well in 25 μL/well by the use of a MATRIX WellMate dispenser. Plates were placed into a humidified cell culture incubator at 37° C. with 5% CO2 until the experimental day. 20-24 hours after seeding mature medium was removed and replaced with 10 μL/well of EMEM cell medium supplemented with 0.1% Pluronic F-68 non-ionic surfactant (Thermofisher, 24040032), referred to as “Assay Buffer”, using the CyBi@-Well instrument. Then 5 μL/well of Assay Buffer containing 3× concentrated test compounds or the reference control agonist (in 0.5% final DMSO concentration) were added to the cells with the CyBi@-Well instrument. Cell plates were incubated for 30 min into a humidified cell culture incubator at 37° C. with 5% CO2, then the medium was removed by manually discard. 20 μL/well of lysis buffer were dispensed using the CyBi@-Well instrument and plates were incubated for 10 min at room temperature on a plate shaker (350 rpm). Then, 10 μL/well of lysate were transferred to the Alpha plates.
The CyBi@-Well instrument was used to dispense 5 μL/well of AlphaLISA Acceptor Bead Solution in IX Immunoassay buffer (Perkin Elmer AL000F). […]

T1 sequence (Q9NZC2 19-230): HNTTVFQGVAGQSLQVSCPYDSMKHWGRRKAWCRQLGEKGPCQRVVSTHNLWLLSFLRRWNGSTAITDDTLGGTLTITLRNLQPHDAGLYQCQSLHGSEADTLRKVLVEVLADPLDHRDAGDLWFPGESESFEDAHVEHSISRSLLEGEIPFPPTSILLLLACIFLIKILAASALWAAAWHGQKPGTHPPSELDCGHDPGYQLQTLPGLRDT
T1 sequence (O43914 22-113 partner): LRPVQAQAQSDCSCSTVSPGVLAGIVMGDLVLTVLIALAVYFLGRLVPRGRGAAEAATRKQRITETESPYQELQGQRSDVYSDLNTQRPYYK

Q: Which results are given for Cn1c(C(F)(F)F)nc2c(-c3ccc(C#N)cc3F)nc(N3CC(Oc4ccnc(C5CC5)c4)C3)nc2c1=O [Example 22, 4-(2-(3-((2-cyclopropylpyridin-4-yl)oxy)azetidin-1-yl)-7-methyl-8-oxo-6-(trifluoromethyl)-7,8-dihydropyrimido[5,4-d]pyrimidin-4-yl)-3-fluorobenzonitrile]?
A: Emax: 75 to 110%; EC50: 10 to 100 nM

Q: Which Emax does the source give for Cn1c(C(F)(F)F)nc2c(-c3ccc(C#N)cc3F)nc(N3CC(Oc4ccnc(C(F)F)c4)C3)nc2c1=O [Example 23, 4-(2-(3-((2-(difluoromethyl)pyridin-4-yl)oxy)azetidin-1-yl)-7-methyl-8-oxo-6-(trifluoromethyl)-7,8-dihydropyrimido[5,4-d]pyrimidin-4-yl)-3-fluorobenzonitrile] here?
A: 75 to 110%

Q: What about the EC50 of the same molecule?
A: 10 to 100 nM

Q: For COc1ccc(-c2nc(N3CC(Oc4cnn(C5CC5)c4)C3)nc3c(=O)n(C)c(C(F)(F)F)nc23)cn1 [Example 37, 6-(3-((1-cyclopropyl-1H-pyrazol-4-yl)oxy)azetidin-1-yl)-8-(6-methoxypyridin-3-yl)-3-methyl-2-(trifluoromethyl)pyrimido[5,4-d]pyrimidin-4(3H)-one], which Emax is on record?
A: 75 to 110%

Q: And the EC50?
A: 100 to 1000 nM

Q: Which Emax does the source give for Cc1cc(CC2CN(c3nc(-c4ccc(F)cc4F)c4nc(C(F)(F)F)n(C)c(=O)c4n3)C2)ccn1 [Example 34, 8-(2,4-difluorophenyl)-3-methyl-6-(3-((2-methylpyridin-4-yl)methyl)azetidin-1-yl)-2-(trifluoromethyl)pyrimido[5,4-d]pyrimidin-4(3H)-one] here?
A: < 75%

Q: What about the EC50 of the same molecule?
A: 10 to 100 nM

Q: Which Emax does the source give for Cn1ncc(OC2CN(c3nc(-c4ccc(C#N)cc4F)c4nc(C(F)(F)F)n(C)c(=O)c4n3)C2)c1Cl [Example 13, 4-(2-(3-((5-chloro-1-methyl-1H-pyrazol-4-yl)oxy)azetidin-1-yl)-7-methyl-8-oxo-6-(trifluoromethyl)-7,8-dihydropyrimido[5,4-d]pyrimidin-4-yl)-3-fluorobenzonitrile] here?
A: 75 to 110%

Q: What about the EC50 of the same molecule?
A: 100 to 1000 nM

Q: Cn1c(C(F)(F)F)nc2c(-c3ccc(C#N)cc3F)nc(N3CC(Oc4cnccn4)C3)nc2c1=O [Example 5, 3-fluoro-4-(7-methyl-8-oxo-2-(3-(pyrazin-2-yloxy)azetidin-1-yl)-6-(trifluoromethyl)-7,8-dihydropyrimido[5,4-d]pyrimidin-4-yl)benzonitrile] was tested. Which Emax did it give?
A: < 75%

Q: And the EC50?
A: 10 to 100 nM

Q: CC(C)n1cc(OC2CN(c3nc(-c4ccc(C#N)cc4F)c4nc(C(F)(F)F)n(C)c(=O)c4n3)C2)cn1 [Example 11, 3-fluoro-4-(2-(3-((1-isopropyl-1H-pyrazol-4-yl)oxy)azetidin-1-yl)-7-methyl-8-oxo-6-(trifluoromethyl)-7,8-dihydropyrimido[5,4-d]pyrimidin-4-yl)benzonitrile] was tested. Which Emax did it give?
A: 75 to 110%

Q: What about the EC50 of the same molecule?
A: 10 to 100 nM

Q: How did the Emax turn out when Cn1c(C(F)(F)F)nc2c(-c3ccc(C#N)cc3F)nc(N3CC(Oc4cnn(CC(F)(F)F)c4)C3)nc2c1=O [Example 19, 3-fluoro-4-(7-methyl-8-oxo-2-(3-((1-(2,2,2-trifluoroethyl)-1H-pyrazol-4-yl)oxy)azetidin-1-yl)-6-(trifluoromethyl)-7,8-dihydropyrimido[5,4-d]pyrimidin-4-yl)benzonitrile] was run?
A: 75 to 110%

Q: What about the EC50 of the same molecule?
A: 10 to 100 nM

Q: Which Emax does the source give for Cc1ncncc1OC1CN(c2nc(-c3ccc(C#N)cc3F)c3nc(C(F)(F)F)n(C)c(=O)c3n2)C1 [Example 29, 3-fluoro-4-(7-methyl-2-(3-((4-methylpyrimidin-5-yl)oxy)azetidin-1-yl)-8-oxo-6-(trifluoromethyl)-7,8-dihydropyrimido[5,4-d]pyrimidin-4-yl)benzonitrile] here?
A: < 75%

Q: What about the EC50 of the same molecule?
A: 100 to 1000 nM

Q: Which results are given for Cn1c(C(F)(F)F)nc2c(-c3ccc(C#N)cc3F)nc(N3CC(Oc4cnn(C(F)F)c4)C3)nc2c1=O [Example 14, 4-(2-(3-((1-(difluoromethyl)-1H-pyrazol-4-yl)oxy)azetidin-1-yl)-7-methyl-8-oxo-6-(trifluoromethyl)-7,8-dihydropyrimido[5,4-d]pyrimidin-4-yl)-3-fluorobenzonitrile]?
A: Emax: 75 to 110%; EC50: 10 to 100 nM

Q: What does the source list for Cc1cncc(OC2CN(c3nc(-c4ccc(C#N)cc4F)c4nc(C(F)(F)F)n(C)c(=O)c4n3)C2)n1 [Example 6, 3-fluoro-4-(7-methyl-2-(3-((6-methylpyrazin-2-yl)oxy)azetidin-1-yl)-8-oxo-6-(trifluoromethyl)-7,8-dihydropyrimido[5,4-d]pyrimidin-4-yl)benzonitrile]?
A: Emax: < 75%; EC50: 100 to 1000 nM

Q: With Cn1c(C(F)(F)F)nc2c(-c3ccc(C#N)cc3F)nc(N3CC(Oc4cnn(CC5CC5)c4)C3)nc2c1=O [Example 15, 4-(2-(3-((1-(cyclopropylmethyl)-1H-pyrazol-4-yl)oxy)azetidin-1-yl)-7-methyl-8-oxo-6-(trifluoromethyl)-7,8-dihydropyrimido[5,4-d]pyrimidin-4-yl)-3-fluorobenzonitrile] as the molecule, how does the Emax read?
A: > 110%

Q: What about the EC50 of the same molecule?
A: 10 to 100 nM

Q: What does the source list for Cc1cc(OC2CN(c3nc(-c4ccc(F)cc4F)c4nc(C(F)(F)F)n(C)c(=O)c4n3)C2)ccn1 [Example 30, 8-(2,4-difluorophenyl)-3-methyl-6-(3-((2-methylpyridin-4-yl)oxy)azetidin-1-yl)-2-(trifluoromethyl)pyrimido[5,4-d]pyrimidin-4(3H)-one]?
A: Emax: 75 to 110%; EC50: 10 to 100 nM

Q: Which results are given for Cn1c(C(F)(F)F)nc2c(-c3ccc(F)cc3F)nc(N3CC(Cc4cnn(C5CC5)c4)C3)nc2c1=O [Example 31, 6-(3-((1-cyclopropyl-1H-pyrazol-4-yl)methyl)azetidin-1-yl)-8-(2,4-difluorophenyl)-3-methyl-2-(trifluoromethyl)pyrimido[5,4-d]pyrimidin-4(3H)-one]?
A: Emax: 75 to 110%; EC50: 100 to 1000 nM

Q: Cn1c(C(F)(F)F)nc2c(-c3ccc(C#N)cc3)nc(N3CC(Oc4cnn(C5CC5)c4)C3)nc2c1=O [Example 35, 4-(2-(3-((1-cyclopropyl-1H-pyrazol-4-yl)oxy)azetidin-1-yl)-7-methyl-8-oxo-6-(trifluoromethyl)-7,8-dihydropyrimido[5,4-d]pyrimidin-4-yl)benzonitrile] was tested. Which Emax did it give?
A: 75 to 110%

Q: And the EC50?
A: 10 to 100 nM

Q: Cn1c(C(F)(F)F)nc2c(-c3ccc(C#N)cc3F)nc(N3CC(Oc4cnc(C#N)cn4)C3)nc2c1=O [Example 7, 5-((1-(4-(4-cyano-2-fluorophenyl)-7-methyl-8-oxo-6-(trifluoromethyl)-7,8-dihydropyrimido[5,4-d]pyrimidin-2-yl)azetidin-3-yl)oxy)pyrazine-2-carbonitrile] was tested. Which Emax did it give?
A: < 75%

Q: And the EC50?
A: 100 to 1000 nM

Q: For Cc1c(OC2CN(c3nc(-c4ccc(C#N)cc4F)c4nc(C(F)(F)F)n(C)c(=O)c4n3)C2)cnn1C [Example 8, 4-(2-(3-((1,5-dimethyl-1H-pyrazol-4-yl)oxy)azetidin-1-yl)-7-methyl-8-oxo-6-(trifluoromethyl)-7,8-dihydropyrimido[5,4-d]pyrimidin-4-yl)-3-fluorobenzonitrile], which Emax is on record?
A: < 75%

Q: And the EC50?
A: 100 to 1000 nM

Q: With COc1ccc(-c2nc(N3CC(Oc4cnn(C5CC5)c4)C3)nc3c(=O)n(C)c(C(F)(F)F)nc23)c(F)c1 [Example 36, 6-(3-((1-cyclopropyl-1H-pyrazol-4-yl)oxy)azetidin-1-yl)-8-(2-fluoro-4-methoxyphenyl)-3-methyl-2-(trifluoromethyl)pyrimido[5,4-d]pyrimidin-4(3H)-one] as the molecule, how does the Emax read?
A: < 75%

Q: What about the EC50 of the same molecule?
A: 100 to 1000 nM
